In patent US10501449B2 (priority 2018, dated 2019):
Like-named read-outs stand apart in the source and are kept apart here.

Experiments:
hROMK (human Kir1.1) [1] = biological target: T1, hROMK (human Kir1.1) (Homo sapiens (Human), UniProt P48048); assay: cell-based; format: cell-based; details: whole-cell manual patch clamp, CHO T-Rex hROMK stable cell line, voltage step to -120 mV, Ba2+-subtracted hROMK current; read-out: ROMK EP IC50
Description: ROMK Manual Patch Clamp Assay
Cell culture conditions: Cells were maintained in conditions similar to those for Thallium flux assay. hROMK channel expression was induced by adding 0.6 μg/ml of Doxycycline 16-24 hrs prior to the experiments. On the day of experiment, the cells were dissociated using Versene, resuspended in growth media and plated onto coverslips 15 minutes prior to use.
Electrophysiology: The coverslip plated with cells was placed in the experiment chamber perfused with bath solution composed of (in mM): 135 NaCl, 5 KCl, 2 CaCl2, 1 MgCl2, 10 HEPES, 5 Glucose (pH 7.4). Patch pipettes with resistance between 2-5 Megaohms, when filled with a solution containing (in mM): 135 KCl, 1 EGTA, 1 MgCl2, 10 HEPES, 2 Na2ATP (pH 7.3), were used to form gigaseals. The cells were voltage clamped at −75 mV in whole-cell configuration using an Axopatch 200b or Multiclamp 700b (Molecular Devices) amplifier controlled by pClamp Software (Molecular Devices). The current was recorded by applying a voltage step to −120 mV every 10 seconds. […] At the end of the experiment, the cells were perfused with bath solution containing 2 mM Ba^2+ to isolate the contribution of hROMK current.
Data analysis: Raw current values (5 traces each for control, different compound concentration and Ba^2+ treatment groups) were exported from Clampfit into Microsoft Excel where the current remaining after application of Ba^2+ was subtracted from raw current to obtain hROMK specific current.

hROMK (human Kir1.1) [2] = biological target: T1, hROMK (human Kir1.1); assay: cell-based; details: CHO T-Rex hROMK stable cell line; thallium flux; 10-point concentration response curve; read-out: Human ROMK Th Flux IC50
hERG channels = hERG channels (Homo sapiens (Human), UniProt Q12809); assay: hERG Manual Patch Clamp Assay; format: cell-based; details: human, HEK 293 cells stably expressing hERG channels, pH 7.4, 1 uM, read-out: hERG EP % Inh @ 1 uM
hERG channels, sequence (Q12809 whole entry): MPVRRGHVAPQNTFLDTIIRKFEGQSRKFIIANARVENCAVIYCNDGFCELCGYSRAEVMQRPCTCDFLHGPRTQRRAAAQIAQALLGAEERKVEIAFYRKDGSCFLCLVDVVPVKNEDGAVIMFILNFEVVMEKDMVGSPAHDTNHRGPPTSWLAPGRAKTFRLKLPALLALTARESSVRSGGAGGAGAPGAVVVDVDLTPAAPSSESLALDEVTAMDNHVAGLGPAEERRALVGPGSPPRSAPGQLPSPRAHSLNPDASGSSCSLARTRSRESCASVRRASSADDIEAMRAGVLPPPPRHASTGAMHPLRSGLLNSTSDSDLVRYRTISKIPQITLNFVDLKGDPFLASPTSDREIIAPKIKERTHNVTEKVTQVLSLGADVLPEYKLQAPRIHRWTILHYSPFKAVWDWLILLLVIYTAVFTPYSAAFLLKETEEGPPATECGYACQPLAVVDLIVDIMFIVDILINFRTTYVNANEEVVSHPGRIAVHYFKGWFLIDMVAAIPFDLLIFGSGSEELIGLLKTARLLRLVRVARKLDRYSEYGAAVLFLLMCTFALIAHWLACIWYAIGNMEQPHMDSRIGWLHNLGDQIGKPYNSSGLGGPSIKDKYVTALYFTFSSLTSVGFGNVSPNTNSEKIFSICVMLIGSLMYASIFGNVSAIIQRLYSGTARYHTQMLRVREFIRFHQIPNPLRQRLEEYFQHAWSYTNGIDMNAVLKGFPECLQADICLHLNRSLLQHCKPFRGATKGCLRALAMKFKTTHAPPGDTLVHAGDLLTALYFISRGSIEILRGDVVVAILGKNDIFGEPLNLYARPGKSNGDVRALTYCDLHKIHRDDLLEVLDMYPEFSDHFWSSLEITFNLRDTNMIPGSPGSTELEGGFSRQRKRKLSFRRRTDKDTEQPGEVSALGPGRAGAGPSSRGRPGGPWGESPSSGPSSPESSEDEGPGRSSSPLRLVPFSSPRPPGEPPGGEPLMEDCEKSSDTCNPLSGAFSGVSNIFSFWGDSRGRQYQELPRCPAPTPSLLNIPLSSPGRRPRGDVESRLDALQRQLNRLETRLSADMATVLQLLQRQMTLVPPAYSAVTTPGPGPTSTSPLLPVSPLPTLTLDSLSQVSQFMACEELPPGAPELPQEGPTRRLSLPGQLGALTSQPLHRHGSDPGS
Description: hERG electrophysiology assay: The experimental compounds were assessed for hERG activity on HEK 293 cells stably expressing hERG channels using patch clamp technique. Coverslips plated with hERG expressing cells were placed in the experimental chamber and were perfused with a solution composed of (in mM): 140 NaCl, 4 KCl, 1.8 CaCl2, 1 MgCl2, 10 Glucose, 10 HEPES (pH 7.4, NaOH) at room temperature. Borosilicate patch pipettes had tip resistances of 2-4 Mohms when filled with an internal solution containing: 130 KCl, 1 MgCl2, 1 CaCl2, 10 EGTA, 10 HEPES, 5 ATP-K2 (pH 7.2, KOH). The cells were clamped at −80 mV in whole cell configuration using an Axopatch 200B (Axon instruments, Union City, Calif.) patch clamp amplifier controlled by pClamp (Axon instruments) software. Upon formation of a gigaseal, the following voltage protocol was repeatedly (0.05 Hz) applied to record tail currents: depolarization step from −80 mV to +20 mV for 2 seconds followed by a hyperpolarization step to −65 mV (3 seconds) to elicit tail currents. Compounds were applied after stabilization of tail current. First, tail currents were recorded in presence of extracellular solution alone (control) and subsequently, in extracellular solution containing increasing compound concentrations. Each compound concentration was applied for 2-5 minutes. The percentage inhibition at each concentration was calculated as reduction in peak tail current with respect to the peak tail current recorded in the presence of control solution. Data analysis was performed in a custom made template. The percent inhibitions at different concentrations were plotted to obtain a concentration response curve, which was subsequently fitted with a four parameter equation to calculate hERG IC50 value.

T1 sequence (P48048 whole entry): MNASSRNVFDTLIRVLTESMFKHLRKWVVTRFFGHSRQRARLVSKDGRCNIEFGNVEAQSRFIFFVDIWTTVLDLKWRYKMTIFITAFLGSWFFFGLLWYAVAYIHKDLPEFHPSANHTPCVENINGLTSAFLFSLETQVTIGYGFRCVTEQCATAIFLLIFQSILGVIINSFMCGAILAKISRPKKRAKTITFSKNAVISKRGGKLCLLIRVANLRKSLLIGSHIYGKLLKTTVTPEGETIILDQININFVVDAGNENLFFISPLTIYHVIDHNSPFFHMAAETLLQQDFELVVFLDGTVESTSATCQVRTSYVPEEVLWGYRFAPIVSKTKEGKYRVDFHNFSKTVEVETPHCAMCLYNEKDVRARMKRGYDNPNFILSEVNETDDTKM

Compound | IC50 (hROMK (human Kir1.1) [1]) [nM] | IC50 (hROMK (human Kir1.1) [2]) [nM] | inhibition at 1 µM (hERG channels) [%]
Cc1c([C@@H]2CN(Cc3cnn(-c4ccnc(C(F)F)c4)c3)C[C@H](C)N2)ccc2c1COC2=O [Example 127-I, 5-((2R,6S)-4-((1-(2-(difluoromethyl)pyridin-4-yl)-1H-pyrazol-4-yl)methyl)-6-methylpiperazin-2-yl)-4-methylisobenzofuran-1(3H)-one] | 14 | 21 | 16
Cc1cc(-c2nc(CN3C[C@@H](c4ccc5c(c4C)COC5=O)N[C@@H](C)C3)co2)ncc1C#N [Example 130-I] | 20 | 52 | 8.4
Cc1cn(-c2ncc(CN3CCN[C@H](c4ccc5c(c4C)COC5=O)C3)cn2)c(C)n1 [Example 139-I, (R)-5-(4-((2-(2,4-dimethyl-1H-imidazol-1-yl)pyrimidin-5-yl)methyl)piperazin-2-yl)-4-methylisobenzofuran-1(3H)-one] | 30 | 36 | 6.6
Cc1ncn(-c2ncc(CN3CCN[C@H](c4ccc5c(c4C)COC5=O)C3)cn2)c1C [Example 148-I, (R)-5-(4-((2-(4,5-dimethyl-1H-imidazol-1-yl)pyrimidin-5-yl)methyl)piperazin-2-yl)-4-methylisobenzofuran-1(3H)-one] | 19 | 27 | 8.8
Cc1nc(-n2ncc(CN3C[C@@H](c4ccc5c(c4C)COC5=O)N[C@@H](C)C3)n2)nc(C)c1C#N [Example 151-I, 4,6-dimethyl-2-(4-(((3S,5R)-3-methyl-5-(4-methyl-1-oxo-1,3-dihydroisobenzofuran-5-yl)piperazin-1-yl)methyl)-2H-1,2,3-triazol-2-yl)pyrimidine-5-carbonitrile] | 64 | 43 | 5.1
Cc1nc(-n2cnc(CN3C[C@@H](c4ccc5c(c4C)COC5=O)N[C@@H](C)C3)c2)ncc1C#N [Example 164-I, 4-methyl-2-(4-(((3S,5R)-3-methyl-5-(4-methyl-1-oxo-1,3-dihydroisobenzofuran-5-yl)piperazin-1-yl)methyl)-1H-imidazol-1-yl)pyrimidine-5-carbonitrile] | 30 | 31 | 6
Cc1c([C@@H]2CN(Cc3ccc(-c4ccc(S(C)(=O)=O)nc4)nc3)C[C@H](C)N2)ccc2c1COC2=O [Example 165-I, 4-methyl-5-((2R,6S)-6-methyl-4-((6′-(methylsulfonyl)-[2,3′-bipyridin]-5-yl)methyl)piperazin-2-yl)isobenzofuran-1(3H)-one] | 39 | 67 | 5.4
COc1nc(-n2ncc(CN3C[C@@H](c4ccc5c(c4C)COC5=O)N[C@@H](C)C3)n2)ncc1C#N [Example 166-I, 4-methoxy-2-(4-(((3S,5R)-3-methyl-5-(4-methyl-1-oxo-1,3-dihydroisobenzofuran-5-yl)piperazin-1-yl)methyl)-2H-1,2,3-triazol-2-yl)pyrimidine-5-carbonitrile] | 13 | 30 | 6
COc1nc(-n2cc(CN3C[C@@H](c4ccc5c(c4C)COC5=O)N[C@@H](C)C3)nc2C)ncc1C#N [Example 167-I, 4-methoxy-2-(2-methyl-4-(((3S,5R)-3-methyl-5-(4-methyl-1-oxo-1,3-dihydroisobenzofuran-5-yl)piperazin-1-yl)methyl)-1H-imidazol-1-yl)pyrimidine-5-carbonitrile] | 18 | 26 | 11
COc1cc(-n2ncc(CN3CCN[C@H](c4ccc5c(c4C)COC5=O)C3)n2)ncc1C#N [Example 168-I, (R)-4-methoxy-6-(4-((3-(4-methyl-1-oxo-1,3-dihydroisobenzofuran-5-yl)piperazin-1-yl)methyl)-2H-1,2,3-triazol-2-yl)nicotinonitrile] | 29 | 20 | 22
COc1cc(-n2cc(CN3CC[C@@H](O)[C@H](c4ccc5c(c4C)COC5=O)C3)n(C)c2=O)ncc1C#N [Example 171-I, 6-(4-(((3R,4R)-4-hydroxy-3-(4-methyl-1-oxo-1,3-dihydroisobenzofuran-5-yl)piperidin-1-yl)methyl)-3-methyl-2-oxo-2,3-dihydro-1H-imidazol-1-yl)-4-methoxynicotinonitrile] | 26 | 27 | 16
Cc1nccc(-n2cc(CN3C[C@@H](c4ccc5c(c4C)COC5=O)N[C@@H](C)C3)n(C)c2=O)n1 [Example 173-I, 3-methyl-4-(((3S,5R)-3-methyl-5-(4-methyl-1-oxo-1,3-dihdyroisobenzofuran-5-yl)piperazin-1-yl)methyl)-1-(2-methylpyrimidin-4-yl)-1,3-dihydro-2H-imidazol-2-one] | 21 | 55 | 4
Cc1cc(-n2ncc(CN3CCN[C@H](c4ccc5c(c4C)COC5=O)C3)n2)nc(C)c1C#N [Example 184-I, (R)-2,4-dimethyl-6-(4-((3-(4-methyl-1-oxo-1,3-dihydroisobenzofuran-5-yl)piperazin-1-yl)methyl)-2H-1,2,3-triaozl-2-yl)nicotinonitrile] | 10 | 30 | 6.1
COc1cc(-n2cc(CN3CCN[C@H](c4ccc5c(c4C)COC5=O)C3)nn2)nc(C)c1C#N [Example 187-I, (R)-4-methoxy-2-methyl-6-(4-((3-(4-methyl-1-oxo-1,3-dihydroisobenzofuran-5-yl)piperaizn-1-yl)methyl)-1H-1,2,3-triazol-1-yl)nicotinonitrile] | 25 | 43 | 11
COc1cc(-n2ncc(CN3CCN[C@H](c4ccc5c(c4C)COC5=O)C3)n2)nc(C)c1C#N [Example 188-I, (R)-4-methoxy-2-methyl-6-(4-((3-(4-methyl-1-oxo-1,3-dihydroisobenzofuran-5-yl)piperazin-1-yl)methyl)-2H-1,2,3-triazol-2-yl)nicotinonitrile] | 18 | 37 | 18
COc1nc(-n2cc(CN3CCN[C@H](c4ccc5c(c4C)COC5=O)C3)nn2)cc(C)c1C#N [Example 189-I, (R)-2-methoxy-4-methyl-6-(4-((3-(4-methyl-1-oxo-1,3-dihydroisobenzofuran-5-yl)piperazin-1-yl)methyl)-1H-1,2,3-triazol-1-yl)nicotinonitrile] | 17 | 25 | 8.9
Cc1cc(-c2nnc(CN3C[C@@H](c4ccc5c(c4C)COC5=O)N[C@@H](C)C3)o2)ncc1C#N [Example 191-I, 4-methyl-6-(5-(((3S,5R)-3-methyl-5-(4-methyl-1-oxo-1,3-dihydroisobenzofuran-5-yl)piperazin-1-yl)methyl)-1,3,4-oxadiazol-2-yl)nicotinonitrile] | 21 | 29 | 4.3
Cc1cc(-c2cc(CN3CC[C@@H](O)[C@H](c4ccc5c(c4C)COC5=O)C3)on2)ncc1C#N [Example 193-I, 6-(5-(((3R,4R)-4-hydroxy-3-(4-methyl-1-oxo-1,3-dihydroisobenzofuran-5-yl)piperidin-1-yl)methyl)isoxazol-3-yl)-4-methylnicotinonitrile] | 20 | 44 | 14
Cc1cc(-n2cc(CN3C[C@H](CO)N(C)[C@H](c4ccc5c(c4C)COC5=O)C3)cn2)ncc1C#N [Example 195-I, 6-(4-(((3R,5R)-3-(hydroxymethyl)-4-methyl-5-(4-methyl-1-oxo-1,3-dihydroisobenzofuran-5-yl)piperaizn-1-yl)methyl)-1H-pyrazol-1-yl)-4-methylnicotinonitrile] | 79 | 66 | 5.9
COc1cc(-n2cc(CN3C[C@@H](c4ccc5c(c4C)COC5=O)N[C@@H](C)C3)cn2)ncn1 [Example 207-I, 5-((2R,6S)-4-((1-(6-methoxypyrimidin-4-yl)-1H-pyrazol-4-yl)methyl)-6-methylpiperazin-2-yl)-4-methylisobenzofuran-1(3H)-one] | 18 | 53 | 10
Cc1cc(-c2cc(CN3C[C@@H](c4ccc5c(c4C)COC5=O)N[C@@H](C)C3)no2)ncc1C#N [Example 210-I, 4-methyl-6-(3-(((3S,5R)-3-methyl-5-(4-methyl-1-oxo-1,3-dihydroisobenzofuran-5-yl)piperazin-1-yl)methyl)isoxazol-5-yl)nicotinonitrile] | 20 | 41 | 5.2
Cc1cn(-c2ncc(CN3CCN[C@H](c4ccc5c(c4C)COC5=O)C3)cn2)cn1 [Example 216-I] | 14 | 25 | 5.6
Cc1nn(-c2ncc(CN3CCN[C@H](c4ccc5c(c4C)COC5=O)C3)cn2)cc1C#N [Example 221-I, (R)-3-methyl-1-(5-((3-(4-methyl-1-oxo-1,3-dihydroisobenzofuran-5-yl)piperazin-1-yl)methyl)pyrimidin-2-yl)-1H-pyraozle-4-carbonitrile] | 13 | 22 | 5.4
CCc1nn(-c2ncc(CN3CCN[C@H](c4ccc5c(c4C)COC5=O)C3)cn2)cc1C#N [Example 228-I, (R)-3-ethyl-1-(5-((3-(4-methyl-1-oxo-1,3-dihydroisobenzofuran-5-yl)piperazin-1-yl)methyl)pyrimidin-2-yl)-1H-pyrazole-4-carbonitrile] | 20 | 14 | 16
Cc1nc(-n2cc(CN3CCN[C@H](c4ccc5c(c4C)COC5=O)C3)cn2)ncc1C#N [Example 230-I, (R)-4-methyl-2-(4-((3-(4-methyl-1-oxo-1,3-dihydroisobenzofuran-5-yl)piperazin-1-yl)methyl)-1H-pyrazol-1-yl)pyrimidine-5-carbonitrile] | 19 | 32 | 2.2
